Experimental data published in patent publication US8871753B2, “Macrocyclic compounds and their use as kinase inhibitors” (Incyte Corporation, priority 2008, dated 2014).
Counter-ions that a name gives are not always drawn. Like-named read-outs stand apart in the source and are kept apart here.

What was measured:
Type in all cases: biochemical
[1] = molecular target: T1, human JAK3 (a.a. 781-1124) (Homo sapiens, UniProt P52333); assay: In vitro JAK kinase assay (HTRF, phosphorylation of a biotinylated peptide), JAK3
T1 construct: JAK3 (a.a. 781-1124); His tag (N); made in house; host or cells: insect cells (baculovirus)
T1 sequence (P52333 781-1124): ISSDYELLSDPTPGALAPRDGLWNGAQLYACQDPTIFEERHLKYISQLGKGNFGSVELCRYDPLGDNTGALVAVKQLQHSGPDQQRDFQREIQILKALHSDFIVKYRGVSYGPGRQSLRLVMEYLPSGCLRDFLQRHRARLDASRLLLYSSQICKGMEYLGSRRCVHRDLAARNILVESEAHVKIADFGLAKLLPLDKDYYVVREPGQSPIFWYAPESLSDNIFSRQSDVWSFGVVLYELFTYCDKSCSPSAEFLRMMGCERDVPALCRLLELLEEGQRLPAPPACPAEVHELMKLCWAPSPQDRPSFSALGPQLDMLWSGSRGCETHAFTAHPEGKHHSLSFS
How it was run: (§1)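 Kinase reactions ran at room temperature for 1 h with ATP matched per isoform (JAK1 90 μM, JAK2 30 μM, JAK3 3 μM). After an EDTA stop, the phosphorylated biotin-peptide was read by HTRF using Eu-Py20 and SA-APC after 40 min binding.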

[2] = molecular target: TYK2 (Homo sapiens, UniProt P29597); assay: TYK2 kinase inhibition (Table A1)
TYK2, sequence (P29597 whole entry): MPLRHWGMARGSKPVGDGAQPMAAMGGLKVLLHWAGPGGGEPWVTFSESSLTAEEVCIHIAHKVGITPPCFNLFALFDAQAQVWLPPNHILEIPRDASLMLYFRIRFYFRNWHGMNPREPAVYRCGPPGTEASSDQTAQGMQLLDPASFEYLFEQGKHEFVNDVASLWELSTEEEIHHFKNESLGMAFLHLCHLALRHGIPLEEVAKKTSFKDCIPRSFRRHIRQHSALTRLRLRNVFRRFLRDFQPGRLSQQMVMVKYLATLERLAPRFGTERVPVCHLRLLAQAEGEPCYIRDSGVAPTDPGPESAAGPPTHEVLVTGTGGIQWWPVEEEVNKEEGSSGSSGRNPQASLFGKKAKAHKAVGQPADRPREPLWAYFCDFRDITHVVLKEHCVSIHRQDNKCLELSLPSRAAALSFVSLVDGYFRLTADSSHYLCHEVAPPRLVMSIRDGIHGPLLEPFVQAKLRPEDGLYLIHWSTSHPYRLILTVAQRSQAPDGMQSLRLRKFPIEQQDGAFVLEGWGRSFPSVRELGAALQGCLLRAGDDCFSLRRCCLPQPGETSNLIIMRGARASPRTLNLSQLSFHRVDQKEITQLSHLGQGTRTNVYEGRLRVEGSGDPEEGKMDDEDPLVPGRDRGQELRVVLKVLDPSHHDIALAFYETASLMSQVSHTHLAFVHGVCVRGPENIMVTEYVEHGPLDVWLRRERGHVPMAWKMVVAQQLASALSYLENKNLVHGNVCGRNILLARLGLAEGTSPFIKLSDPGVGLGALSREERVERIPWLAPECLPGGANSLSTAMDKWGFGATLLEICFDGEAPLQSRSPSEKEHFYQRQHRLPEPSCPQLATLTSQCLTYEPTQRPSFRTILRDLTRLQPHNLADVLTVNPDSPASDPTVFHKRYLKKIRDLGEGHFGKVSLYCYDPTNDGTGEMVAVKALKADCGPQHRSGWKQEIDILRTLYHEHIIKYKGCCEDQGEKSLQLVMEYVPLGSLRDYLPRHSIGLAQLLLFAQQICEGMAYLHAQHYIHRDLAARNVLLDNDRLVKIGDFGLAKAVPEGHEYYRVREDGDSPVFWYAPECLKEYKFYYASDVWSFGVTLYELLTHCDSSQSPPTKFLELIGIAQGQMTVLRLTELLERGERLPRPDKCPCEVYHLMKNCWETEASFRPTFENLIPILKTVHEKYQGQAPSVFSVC

[3] = molecular target: T2, human JAK1 (a.a. 837-1142) (Homo sapiens, UniProt P23458); assay: In vitro JAK kinase assay (HTRF, phosphorylation of a biotinylated peptide), JAK1; settings: read-out: JAK1 IC50
T2 construct: human JAK1 (a.a. 837-1142); His tag (N); made in house; host or cells: insect cells (baculovirus)
T2 sequence (P23458 849-1154): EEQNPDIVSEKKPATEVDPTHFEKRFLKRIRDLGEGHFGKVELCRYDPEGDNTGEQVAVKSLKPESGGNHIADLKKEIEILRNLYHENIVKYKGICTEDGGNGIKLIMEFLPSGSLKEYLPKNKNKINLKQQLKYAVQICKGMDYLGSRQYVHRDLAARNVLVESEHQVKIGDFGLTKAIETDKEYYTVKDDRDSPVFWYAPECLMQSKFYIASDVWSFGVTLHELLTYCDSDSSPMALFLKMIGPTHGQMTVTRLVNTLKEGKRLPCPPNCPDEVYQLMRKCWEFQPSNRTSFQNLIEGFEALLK
How it was run: as §1

[4] = molecular target: T3, human JAK2 (a.a. 828-1132) (Homo sapiens, UniProt O60674); assay: In vitro JAK kinase assay (HTRF, phosphorylation of a biotinylated peptide), JAK2
T3 construct: JAK2 (a.a. 828-1132); His tag (N); made in house; host or cells: insect cells (baculovirus)
T3 sequence (O60674 828-1132): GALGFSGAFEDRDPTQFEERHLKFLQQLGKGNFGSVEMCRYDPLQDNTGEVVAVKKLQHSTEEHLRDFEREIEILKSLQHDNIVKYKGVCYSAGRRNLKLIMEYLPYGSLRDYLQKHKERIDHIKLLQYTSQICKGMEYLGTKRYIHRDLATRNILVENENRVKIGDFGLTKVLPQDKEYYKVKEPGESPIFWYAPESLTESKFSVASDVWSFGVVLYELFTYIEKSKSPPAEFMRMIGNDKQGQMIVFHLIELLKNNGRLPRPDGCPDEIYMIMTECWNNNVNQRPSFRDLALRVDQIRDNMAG
How it was run: as §1

[5] = molecular target: T4, Recombinant Human Anaplastic Lymphoma Kinase (Homo sapiens, UniProt Q9UM73); assay: ALK HTRF kinase assay
T4 construct: purchased Invitrogen, Carlsbad, Calif
T4 sequence (Q9UM73 19-1620): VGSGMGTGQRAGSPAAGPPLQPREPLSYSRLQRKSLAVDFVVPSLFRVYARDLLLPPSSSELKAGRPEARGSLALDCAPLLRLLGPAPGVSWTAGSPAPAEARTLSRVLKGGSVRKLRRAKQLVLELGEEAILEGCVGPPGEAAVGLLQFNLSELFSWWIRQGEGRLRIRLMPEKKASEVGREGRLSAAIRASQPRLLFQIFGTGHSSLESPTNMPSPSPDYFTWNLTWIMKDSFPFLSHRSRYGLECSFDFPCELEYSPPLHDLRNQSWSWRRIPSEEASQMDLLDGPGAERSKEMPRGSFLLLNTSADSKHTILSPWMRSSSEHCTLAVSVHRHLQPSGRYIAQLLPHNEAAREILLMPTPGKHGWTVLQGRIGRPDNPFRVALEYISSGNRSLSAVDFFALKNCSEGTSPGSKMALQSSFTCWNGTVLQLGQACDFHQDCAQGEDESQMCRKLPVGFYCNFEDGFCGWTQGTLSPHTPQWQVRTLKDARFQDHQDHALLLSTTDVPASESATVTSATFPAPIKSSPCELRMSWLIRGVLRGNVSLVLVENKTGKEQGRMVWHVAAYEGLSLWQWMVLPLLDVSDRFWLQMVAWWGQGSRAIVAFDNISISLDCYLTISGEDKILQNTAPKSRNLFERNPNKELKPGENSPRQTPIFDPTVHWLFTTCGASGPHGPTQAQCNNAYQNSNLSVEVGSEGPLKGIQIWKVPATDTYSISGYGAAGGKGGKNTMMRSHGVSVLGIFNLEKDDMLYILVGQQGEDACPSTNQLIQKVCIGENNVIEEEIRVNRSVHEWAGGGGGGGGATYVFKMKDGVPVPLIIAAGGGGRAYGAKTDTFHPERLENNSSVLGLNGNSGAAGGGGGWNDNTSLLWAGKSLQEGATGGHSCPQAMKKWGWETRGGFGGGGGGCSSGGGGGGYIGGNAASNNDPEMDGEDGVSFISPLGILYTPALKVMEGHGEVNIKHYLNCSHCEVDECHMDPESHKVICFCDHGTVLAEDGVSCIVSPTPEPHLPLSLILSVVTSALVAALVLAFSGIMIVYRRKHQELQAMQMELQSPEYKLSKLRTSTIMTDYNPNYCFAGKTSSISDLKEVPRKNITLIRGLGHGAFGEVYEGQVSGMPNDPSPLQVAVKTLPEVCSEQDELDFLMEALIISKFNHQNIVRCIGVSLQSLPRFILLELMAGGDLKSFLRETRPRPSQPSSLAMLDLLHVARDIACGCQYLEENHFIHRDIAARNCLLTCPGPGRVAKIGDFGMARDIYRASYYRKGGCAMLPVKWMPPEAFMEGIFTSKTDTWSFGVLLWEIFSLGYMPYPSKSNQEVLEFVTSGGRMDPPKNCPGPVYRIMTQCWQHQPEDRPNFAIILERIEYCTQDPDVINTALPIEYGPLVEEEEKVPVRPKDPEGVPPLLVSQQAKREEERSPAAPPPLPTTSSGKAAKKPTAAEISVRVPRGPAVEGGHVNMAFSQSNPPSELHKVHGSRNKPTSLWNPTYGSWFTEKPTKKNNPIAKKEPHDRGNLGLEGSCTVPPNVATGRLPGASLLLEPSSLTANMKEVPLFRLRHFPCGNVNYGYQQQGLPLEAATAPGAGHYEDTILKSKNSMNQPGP
How it was run: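 Biotinylated peptide substrate, recombinant human ALK; detection via europium-chelate antibody to phosphotyrosine paired with streptavidin-APC. Potency expressed as IC50 from four-parameter curve fitting.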

[6] = compound at a concentration of 500 nM or 1 mM (not specified), cells shown as percentage
[7] = percentage inhibition of the example compound at a concentration of 500 nM or 1 mM (not specified which)
[8] = Table B1, cells without percent sign

| IC50 ([1]; Table B1) [nM] | IC50 ([2]; Table B1) [nM] | IC50 ([3]; Table B1) [nM] | IC50 ([4]; Table B1) [nM] | ALK % of inhibition at a concentration of 500 nM or 1 mM [5, 6] [%] | also measured | Structure (SMILES) |
| --- | --- | --- | --- | --- | --- | --- |
|  |  |  |  |  | IC50 ([1]; method AA1 (3 μM ATP) or AA2 (1000 μM ATP), not stated per value): 56 nM; IC50 [2]: 12 nM; IC50 ([3]; method AA1 (90 μM ATP) or AA2 (1000 μM ATP), not stated per value): 14 nM; IC50 ([4]; method AA1 (30 μM ATP) or AA2 (1000 μM ATP), not stated per value): 9.8 nM; ALK % of inhibition at a concentration of 500 nM or 1 mM ([5]; compound at 500 nM or 1 mM, 90 μM ATP): 31% | O=C(CC1CCN(C(=O)c2cnccn2)CC1)Nc1ccc2cc1CCc1cccc(c1)Nc1ncc(Cl)c(n1)N2 [Example A87, N-[6-Chloro-2,4,8,22-tetraazatetracyclo[14.3.1.1(3,7).1(9,13)]docosa-1(20),3(22),4,6,9(21),10,12,16,18-nonaen-12-yl]-2-[1-(pyrazin-2-ylcarbonyl)piperidin-4-yl]acetamide bis(trifluoroacetate)] |
| 12 | 6.9 | 2.8 | 2 | 16 |  | CC(CO)NC(=O)Nc1ccc2cc1CCc1cccc(c1)Nc1ncc(Cl)c(n1)N2 (stereo not shown) [Example B242, N-[6-Chloro-2,4,8,22-tetraazatetracyclo[14.3.1.1(3,7).1(9,13)]docosa-1(20),3(22),4,6,9(21),10,12,16,18-nonaen-12-yl]-N′-(2-hydroxy-1-methylethyl)urea trifluoroacetate] |
|  |  |  |  |  | IC50 ([1]; Table D1): 53 nM; IC50 ([2]; Table D1): 25 nM; IC50 ([3]; Table D1): 6.2 nM; IC50 ([4]; Table D1): 5.2 nM; IC50 ([5]; Table D1, 90 μM ATP): 525 nM | Clc1cnc2nc1Nc1cccc(c1)OCCc1cc(cc(-c3ccccc3)c1)N2 [Example D28, 6-Chloro-19-phenyl-14-oxa-2,4,8,23-tetraazatetracyclo[15.3.1.1(3,7).1(9,13)]tricosa-1(21),3(23),4,6,9(22),10,12,17,19-nonaene trifluoroacetate] |
| > 400 | 208 | 16 | 180 |  | ALK % of inhibition at a concentration of 500 nM or 1 mM [5, 7]: 64% | O=C(Nc1ccc2cc1CCc1cncc(c1)Nc1ncc(Cl)c(n1)N2)N1CCn2c(nnc2C(F)(F)F)C1 [Example B316, N-[6-Chloro-2,4,8,18,22-pentaazatetracyclo[14.3.1.1(3,7).1(9,13)]docosa-1(20),3(22),4,6,9(21),10,12,16,18-nonaen-12-yl]-3-(trifluoromethyl)-5,6-dihydro[1,2,4]triazolo[4,3-a]pyrazine-7(8H)-carboxamide tris(trifluoroacetate)] |
| > 10000 | 887 | 27 | 765 | 12 |  | O=C(Nc1ccc2cc1CCc1cncc(c1)Nc1ncc(Cl)c(n1)N2)N[C@H]1CCN(C(=O)c2cn[nH]c2)C1 [Example B267, N-[6-chloro-2,4,8,18,22-pentaazatetracyclo[14.3.1.1(3,7).1(9,13)]docosa-1(20),3(22),4,6,9(21),10,12,16,18-nonaen-12-yl]-N′-[(3S)-1-(1H-pyrazol-4-ylcarbonyl)pyrrolidin-3-yl]urea bis(trifluoroacetate)] |
| 24 | 7.1 | 18 | 25 |  | ALK % of inhibition at a concentration of 500 nM or 1 mM [5, 7]: 16% | CN(C)S(=O)(=O)NCCNC(=O)Nc1ccc2cc1CCc1cccc(c1)Nc1ncc(Cl)c(n1)N2 [Example B328, N-[6-chloro-2,4,8,22-tetraazatetracyclo[14.3.1.1(3,7).1(9,13)]docosa-1(20),3(22),4,6,9(21),10,12,16,18-nonaen-12-yl]-N′-(2-{[(dimethylamino)sulfonyl]amino}ethyl)urea trifluoroacetate] |
| 261 | 72 | 9.6 | 56 | 0 |  | O=C(Nc1ccc2cc1CCc1cccc(c1)Nc1ncc(Cl)c(n1)N2)Nc1cccc2c1CCCC2 [Example B109, N-[6-Chloro-2,4,8,22-tetraazatetracyclo[14.3.1.1(3,7).1(9,13)]docosa-1(20),3(22),4,6,9(21),10,12,16,18-nonaen-12-yl]-N′-(5,6,7,8-tetrahydronaphthalen-1-yl)urea trifluoroacetate] |
| > 400 | 208 | 29 | 341 | 62 |  | COc1ccccc1N1CCN(C(=O)Nc2ccc3cc2CCc2cncc(c2)Nc2ncc(Cl)c(n2)N3)CC1 [Example B298, N-[6-Chloro-2,4,8,18,22-pentaazatetracyclo[14.3.1.1(3,7).1(9,13)]docosa-1(20),3(22),4,6,9(21),10,12,16,18-nonaen-12-yl]-4-(2-methoxyphenyl)piperazine-1-carboxamide tris(trifluoroacetate)] |
| 1850 | 222 | 47 | 126 | 10 |  | CCOC(=O)c1coc(Nc2ccc3cc2CCc2cccc(c2)Nc2ncc(Cl)c(n2)N3)n1 [Example B278, Ethyl 2-{[6-chloro-2,4,8,22-tetraazatetracyclo[14.3.1.1(3,7).1(9,13)]docosa-1(20),3(22),4,6,9(21),10,12,16,18-nonaen-12-yl]amino}-1,3-oxazole-4-carboxylate bis(trifluoroacetate)] |
| > 1000 | > 1000 | 500 | 350 |  | IC50 [5, 8]: > 1000 nM | CN1CCN(C(=O)c2cc3cc(c2)Nc2nc(ncc2Cl)Nc2cccc(c2)CC3)CC1 [Example B8, 6-Chloro-11-[(4-methylpiperazin-1-yl)carbonyl]-2,4,8,22-tetraazatetracyclo[14.3.1.1(3,7).1(9,13)]docosa-1(20),3(22),4,6,9(21),10,12,16,18-nonaene trifluoroacetate] |
| 61 | 25 | 33 | 14 | 28 |  | O=C(Nc1ccc2cc1CCc1cccc(c1)Nc1ncc(Cl)c(n1)N2)c1cccc(C(F)(F)F)c1 [Example B76, N-[6-Chloro-2,4,8,22-tetraazatetracyclo[14.3.1.1(3,7).1(9,13)]docosa-1(20), 3(22),4,6,9(21),10,12,16,18-nonaen-12-yl]-3-(trifluoromethyl)benzamide trifluoroacetate] |
| 182 | 89 | 25 | 27 | 6.1 |  | O=C(Nc1ccc2cc1CCc1cccc(c1)Nc1ncc(Cl)c(n1)N2)NC12CC3CC(CC(C3)C1)C2 [Example B127, N-1-Adamantyl-N′-[6-chloro-2,4,8,22-tetraazatetracyclo[14.3.1.1(3,7).1(9,13)]docosa-1(20),3(22),4,6,9(21),10,12,16,18-nonaen-12-yl]urea trifluoroacetate] |
| 37 | 6.6 | 2.5 | 1.5 |  | IC50 [5, 8]: 1800 nM | O=S(=O)(Cc1ccccc1)Nc1ccc2cc1CCc1cccc(c1)Nc1ncc(Cl)c(n1)N2 [Example B147, N-[6-Chloro-2,4,8,22-tetraazatetracyclo[14.3.1.1(3,7).1(9,13)]docosa-1(20), 3(22),4,6,9(21),10,12,16,18-nonaen-12-yl]-1-phenylmethanesulfonamide trifluoroacetate] |
| 29 | 8.8 | 1.4 | 5.2 | 23 |  | CCNC(=O)Nc1ccc2cc1CCc1cccc(c1)Nc1ncc(Cl)c(n1)N2 [Example B115, N-[6-Chloro-2,4,8,22-tetraazatetracyclo[14.3.1.1(3,7).1(9,13)]docosa-1(20), 3(22),4,6,9(21),10,12,16,18-nonaen-12-yl]-N′-ethylurea trifluoroacetate] |
